Reference: BindingDB's records for patent US9273014 (Bristol-Myers Squibb Co., 2016)

Target: Neurogenic locus notch homolog protein 3 (Human, UniProt Q9UM47)
Assay: Biological Assay

Sequence of Neurogenic locus notch homolog protein 3 (Q9UM47 whole entry): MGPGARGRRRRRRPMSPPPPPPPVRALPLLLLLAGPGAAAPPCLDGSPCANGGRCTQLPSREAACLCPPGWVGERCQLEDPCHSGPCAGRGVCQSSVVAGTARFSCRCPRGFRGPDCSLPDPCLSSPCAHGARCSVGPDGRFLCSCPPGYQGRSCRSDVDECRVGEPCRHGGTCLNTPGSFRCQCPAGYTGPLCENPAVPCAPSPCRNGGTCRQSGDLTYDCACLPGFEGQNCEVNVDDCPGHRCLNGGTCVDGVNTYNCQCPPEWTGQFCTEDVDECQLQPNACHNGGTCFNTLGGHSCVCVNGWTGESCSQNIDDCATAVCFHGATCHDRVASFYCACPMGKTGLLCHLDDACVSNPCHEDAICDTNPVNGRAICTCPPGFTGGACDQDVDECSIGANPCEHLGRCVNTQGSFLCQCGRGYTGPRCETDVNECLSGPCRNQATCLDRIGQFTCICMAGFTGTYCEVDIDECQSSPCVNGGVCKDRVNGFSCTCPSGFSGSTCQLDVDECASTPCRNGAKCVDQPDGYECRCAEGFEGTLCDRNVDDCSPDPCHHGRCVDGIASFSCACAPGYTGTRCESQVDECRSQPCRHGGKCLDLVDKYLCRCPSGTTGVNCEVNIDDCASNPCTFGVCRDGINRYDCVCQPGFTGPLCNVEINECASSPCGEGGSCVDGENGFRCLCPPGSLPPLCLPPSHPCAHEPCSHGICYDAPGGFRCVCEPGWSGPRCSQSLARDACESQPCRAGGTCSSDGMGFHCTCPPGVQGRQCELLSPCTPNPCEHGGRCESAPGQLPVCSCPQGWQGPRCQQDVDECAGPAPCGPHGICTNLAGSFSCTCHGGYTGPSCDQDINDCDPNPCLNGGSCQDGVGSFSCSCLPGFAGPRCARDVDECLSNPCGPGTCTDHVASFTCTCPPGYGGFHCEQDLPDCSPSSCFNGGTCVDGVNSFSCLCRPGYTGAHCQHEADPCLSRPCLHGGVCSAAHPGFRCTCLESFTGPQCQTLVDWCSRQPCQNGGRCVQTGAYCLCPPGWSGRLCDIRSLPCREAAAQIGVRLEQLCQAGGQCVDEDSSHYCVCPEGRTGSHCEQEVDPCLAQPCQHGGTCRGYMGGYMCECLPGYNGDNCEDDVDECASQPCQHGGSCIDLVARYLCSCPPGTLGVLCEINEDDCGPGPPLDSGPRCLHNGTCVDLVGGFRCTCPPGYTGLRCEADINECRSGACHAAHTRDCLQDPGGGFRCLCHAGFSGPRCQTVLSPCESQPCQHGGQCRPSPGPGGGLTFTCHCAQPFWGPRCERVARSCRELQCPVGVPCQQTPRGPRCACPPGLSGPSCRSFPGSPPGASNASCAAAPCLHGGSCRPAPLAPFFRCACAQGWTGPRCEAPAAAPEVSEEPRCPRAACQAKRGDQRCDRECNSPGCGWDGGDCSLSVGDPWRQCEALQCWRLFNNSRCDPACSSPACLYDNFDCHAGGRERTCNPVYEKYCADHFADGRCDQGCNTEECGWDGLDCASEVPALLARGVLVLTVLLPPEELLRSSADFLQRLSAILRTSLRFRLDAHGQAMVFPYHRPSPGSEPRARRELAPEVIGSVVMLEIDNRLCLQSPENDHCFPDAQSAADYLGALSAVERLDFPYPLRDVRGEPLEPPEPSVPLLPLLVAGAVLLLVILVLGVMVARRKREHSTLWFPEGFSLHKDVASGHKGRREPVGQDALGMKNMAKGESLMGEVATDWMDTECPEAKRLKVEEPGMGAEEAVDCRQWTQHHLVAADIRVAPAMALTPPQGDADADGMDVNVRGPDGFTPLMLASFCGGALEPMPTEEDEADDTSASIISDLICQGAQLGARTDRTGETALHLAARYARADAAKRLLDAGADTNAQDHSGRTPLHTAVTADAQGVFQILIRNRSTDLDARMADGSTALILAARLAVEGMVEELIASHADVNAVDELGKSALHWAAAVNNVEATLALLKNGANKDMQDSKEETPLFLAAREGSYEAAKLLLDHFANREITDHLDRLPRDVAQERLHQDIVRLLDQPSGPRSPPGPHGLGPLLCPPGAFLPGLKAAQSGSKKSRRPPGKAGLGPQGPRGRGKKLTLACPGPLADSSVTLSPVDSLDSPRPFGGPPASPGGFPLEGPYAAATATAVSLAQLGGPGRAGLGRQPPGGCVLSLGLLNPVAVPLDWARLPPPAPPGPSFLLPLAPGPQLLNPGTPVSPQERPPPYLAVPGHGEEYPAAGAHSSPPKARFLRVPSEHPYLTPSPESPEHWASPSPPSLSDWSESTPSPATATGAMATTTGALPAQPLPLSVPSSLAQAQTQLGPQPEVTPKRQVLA

Row | Structure (SMILES) | IC50 [nM]
1 | CC(C)c1cccc2c1NC(=O)[C@@H](NC(=O)[C@H](CCC(F)(F)F)[C@H](CCC(F)(F)F)C(N)=O)N=C2c1ccccc1 [US9273014, 13] | 4.9
2 | COc1cccc2c1NC(=O)[C@@H](NC(=O)[C@H](CCC(F)(F)F)[C@H](CCC(F)(F)F)C(N)=O)N=C2c1cccc(C)c1 [US9273014, 29] | 5.7
